Columns and labels:
Format in all cases: in vivo, rat
[1] = system: Wistar albino rats, ischemia-reperfusion; test: Inhibition of oxidative stress during the ischemia-reperfusion process, stress markers taken together
Method: (§1) Rats were randomly divided into five groups. The first group was a group of operated rats that underwent ischemia followed by an hour-long reperfusion without being treated with ABA (operated untreated control). The other four groups included operated rats that underwent ischemia followed by an hour-long reperfusion with an intravenous ABA treatment 20 minutes before reperfusion at a final concentration of either 10 μM, 50 μM, 100 μM, or 500 μM of ABA. Upon completion of the one-hour reperfusion, the rats were anesthetized with intraperitoneal injection of ketamine (40 mg/kg) and diazepam (5 mg/kg) and evaluated.
(§2) In another dosage experiment, rats were randomly divided into five groups. […] Upon completion of the one-hour reperfusion, the rats were anesthetized with intraperitoneal injection of ketamine (40 mg/kg) and diazepam (5 mg/kg) and evaluated.
(§3) Following the anesthesia, an abdominal opening technique was performed by a midline laparotomy incision. […] Right after the one-hour reperfusion treatment period, peripheral blood samples were collected and evaluated.
Malondialdehyde (MDA) levels were determined in anti-coagulated whole blood using a colorimetric assay as described elsewhere (Ohakawa et al., Anal. Biochem., 95:351-8 (1979)). […]

[2] = system: Wistar albino rats, ischemia-reperfusion; test: Reduced glutathione (GSH) levels in whole blood after ischemia-reperfusion
Method: (§4) The rats were divided randomly into four groups. The first group was a group of operated rats that underwent ischemia followed by an hour-long reperfusion without being treated with ABA (operated untreated control). The other three groups included operated rats that underwent ischemia followed by an hour-long reperfusion with an ABA treatment (intravenously; final concentration of 100 μM) either 20 minutes, 40 minutes, or 60 minutes before reperfusion. Upon completion of the one-hour reperfusion, the rats were anesthetized with intraperitoneal injection of ketamine (40 mg/kg) and diazepam (5 mg/kg) and evaluated.
(§5) Rats were randomly divided into five groups. The first group was a group of operated rats that underwent ischemia followed by an hour-long reperfusion without being treated with ABA (operated untreated control). […] Upon completion of the one-hour reperfusion, the rats were anesthetized with intraperitoneal injection of ketamine (40 mg/kg) and diazepam (5 mg/kg) and evaluated.
as §2, §3
(§6) Malondialdehyde (MDA) levels were determined in anti-coagulated whole blood using a colorimetric assay as described elsewhere (Ohakawa et al., Anal. Biochem., 95:351-8 (1979)). Reduced glutathione (GSH) levels, as opposed to oxidized GSH, were measured in anti-coagulated whole blood using a colorimetric assay as described elsewhere (Sedlak and Lindsay, Anal. Biochem., 25:192-205 (1968)). Superoxide dismutase (SOD) enzyme activity was measured in washed red blood cells using a colorimetric assay as described elsewhere (Misra and Fridovich, J. Biol. Chem., 247:3170-3175 (1972)). […]

SOD mRNA = SOD mRNA expression in renal tissue, semi-quantitative RT-PCR; settings: increasing amount of ABA (10-500 μM) injected 40 minutes before reperfusion, FIG. 5
Method: as §1, with “In another dosage experiment, rats” for “Rats”, “40” for “20”
(§7) Following the anesthesia, an abdominal opening technique was performed by a midline laparotomy incision. See, FIGS. 1A-F. After repositioning the intestines, the aorta came into sight and was carefully isolated. After the isolation process, the aorta was occluded for one hour (ischemic period). The clamp was released at the end of the ischemic period to start the reperfusion for one hour. Right after the one-hour reperfusion treatment period, peripheral blood samples were collected and evaluated.
(§8) Total RNA was extracted from the renal tissue samples with TRI reagent (Sigma-Aldrich) according to the manufacturer's instructions. […]

[3] = system: Superoxide dismutase (SOD); test: Superoxide dismutase (SOD) enzyme activity in washed red blood cells after ischemia-reperfusion
Method: as §4, §5, §2, §3, §6

[4] = system: Wistar albino rats, ischemia-reperfusion; test: Malondialdehyde (MDA) levels in whole blood after ischemia-reperfusion (infrarenal aorta occlusion)
Method: as §4, §5, §2, §3, §6

[5] = system: Wistar albino rats, ischemia-reperfusion; test: Total thiol groups (SH) in whole blood after ischemia-reperfusion; settings: 10, 50, 100 and 500 μM, 40 minutes before reperfusion; FIG. 4
Method: as §1, with “In another dosage experiment, rats” for “Rats”, “40” for “20”
as §3, with “incision. See, FIGS. 1A-F. After repositioning the intestines, the aorta came into sight and was carefully isolated.” for “incision.”
Malondialdehyde (MDA) levels were determined in anti-coagulated whole blood using a colorimetric assay as described elsewhere (Ohakawa et al., Anal. Biochem., 95:351-8 (1979)). Reduced glutathione (GSH) levels, as opposed to oxidized GSH, were measured in anti-coagulated whole blood using a colorimetric assay as described elsewhere (Sedlak and Lindsay, Anal. Biochem., 25:192-205 (1968)). […]

PPAR-γ mRNA = PPAR-γ mRNA expression in renal tissue, semi-quantitative RT-PCR; settings: ABA 40 minutes before reperfusion, FIG. 6
Method: as §1, with “In another dosage experiment, rats” for “Rats”, “40” for “20”
as §7, §8

skeletal muscle = test: Histological analysis of skeletal muscle (m. tensor fasciae latae) after ischemia-reperfusion; settings: 100 μM i.v. at 20th minute of 1 h ischemia, 1 h reperfusion; versus ischemic reperfused operated controls; FIG. 7C
Method: Wistar albino rats (250-280 g) were sham operated (control without ischemia-reperfusion treatment), subjected to ischemia followed by reperfusion (ischemia-reperfusion control), or subjected to ischemia followed by reperfusion with ABA being injected intravenously at a final concentration of 100 μM at the 20th minute of the one hour long ischemic period, which was followed by a one-hour reperfusion. After the one-hour reperfusion periods, tissue samples were obtained from the hind limb (m. tensor fasciae latae) of the rats and fixed in 10% buffered formaldehyde prior to being processed in a paraffin-embedded block. Four-micrometer-thick sections were cut and stained with hematoxylin and eosin.

SMILES: CC1=CC(=O)CC(C)(C)[C@@]1(O)/C=C/C(C)=C\C(=O)O [ABA, (2Z,4E)-5-[(1S)-1-hydroxy-2,6,6-trimethyl-4-oxocyclohex-2-en-1-yl]-3-methylpenta-2,4-dienoic acid]
- concentration as low as which ABA inhibits oxidative stress ([1]; 20 minutes before reperfusion): 10 µM
- levels as low as which ABA inhibits oxidative stress ([1]; 40 minutes before reperfusion): 10 to 50 µM
- reduced GSH levels ([2]; 100 μM final concentration, administered 40 or 60 minutes prior to reperfusion, FIG. 2): increases in reduced GSH levels
- reduced GSH levels ([2]; 50, 100 and 500 μM, 20 minutes before reperfusion, FIG. 3): decrease in the levels of reduced GSH levels
- reduced GSH levels ([2]; 50, 100 and 500 μM, 40 minutes before reperfusion, FIG. 4): increase in the levels of reduced GSH levels
- SOD mRNA expression (SOD mRNA): increased levels of SOD mRNA expression
- SOD activity ([3]; 100 μM final concentration, all time-points tested (0, 20, 40, 60 minutes before reperfusion), FIG. 2): increases in SOD activity at all time-points tested
- SOD activity ([3]; 10, 100 and 500 μM, 40 minutes before reperfusion, FIG. 4): increase in SOD activity
- SOD activity ([3]; 100 and 500 μM, 20 minutes before reperfusion, FIG. 3): increase in SOD activity
- level of MDA ([4]; 100 μM final concentration, superior mesenteric vein, 0, 20, 40 and 60 minutes before reperfusion, blood after 1 h ischemia and 1 h reperfusion, FIG. 2): efficiently diminished the level of MDA at all time-points tested
- level of MDA ([4]; 10, 50, 100 and 500 μM final concentration, 20 minutes before reperfusion, FIG. 3): efficiently diminished the level of MDA
- level of MDA ([4]; 100 and 500 μM final concentration, 40 minutes before reperfusion, FIG. 4): efficiently diminished the level of MDA
- levels of SH (total thiol groups) [5]: increase in the levels of SH
- expression of PPAR-γ mRNA (PPAR-γ mRNA): increased expression of PPAR-γ mRNA
- extracellular oedema (fiber separation) (skeletal muscle): minimal extracellular oedema
- intercellular vacuolization (skeletal muscle): near complete absence of intercellular vacuolization
- tissue and cell architecture (skeletal muscle): noticeable helped to preserve of the normal tissue and cell architecture

Reference: US10610501B2, “Methods and materials for reducing ischemia-reperfusion injury” (The University of Pécs (Pécsi Tudományegyetem), priority 2014, dated 2020)
